Where two headings read alike, the source gives them in different places.

Common to all, as to format: cell-based
Test [1] has as its system Dengue serotype 2 New Guinea C (NGC) strain. Briefly: DENV-2 Huh-7 EC50 (qPCR in Huh7 cells). The protocol:
Huh7 (Human hepatocarcinoma 7) cells were maintained in 10% FCS-containing DMEM complete media. On the day of the assay, cells were trypsinized (0.1% Trypsin-EDTA), washed and infected for 2 hours in serum-free DMEM with Dengue serotype 2 New Guinea C (NGC) strain at MOI=0.1 with gentle agitation at 37° C. After 2 hours, cells were washed with serum-free media and suspended in 10% FCS-containing DMEM (Gibco, supplemented with sodium pyruvate, NEAA, Penicillin-Streptomycin). 10^5 cells were plated in triplicate in 96-well plates with compounds dispensed at graded doses (Hewlett-Packard D300 Digital Dispenser). All wells were normalized to 0.25% DMSO. At 48 hours, cells were washed with 1×PBS and all supernatants removed. Total RNA was extracted using RNEasy 96 plates (Qiagen) and used to generate first-strand cDNA using XLT cDNA 5× Supermix (QuantaBio). cDNA was used as a template in a Taqman qPCR duplex reaction specific to DENV2 viral and GAPDH gene expression. EC50 values were determined using Prism Graphpad software, with normalization to a positive control and no compound negative control wells.
In general terms: Quantitative PCR measures a nucleic acid by following its amplification.

In the next test the test system is HRV16. Briefly: HRV16 HeLa EC50 (cytopathic effect in H1-HeLa cells). The procedure, abridged: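 H1-HeLa cells seeded one day before, given 3-fold serial compound dilutions in triplicate just prior to infection with pre-titrated virus. Incubated 96 h at 33 °C/5% CO2; protection from cytopathic effect read as viability by CellTiter-Glo luminescence, normalised to infected untreated (0%) and uninfected (100%) controls.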

In a further test the test system is HCV Rep 1B. As to the kind of experiment: HCV Rep 1B EC50 (replicon luciferase). The settings on record: Table 4, replicon cells, 3 days, read-out: HCV Rep 1B EC50. As for the experimental part: (§1) Compounds were serially diluted in ten steps of 1:3 dilutions in 384-well plates. All serial dilutions were performed in four replicates per compound within the same 384-well plate. […] To each well of a black polystyrene 384-well plate (Greiner Bio-one, Monroe, NC), 90 μL of cell culture medium (without Geneticin) containing 2000 suspended HCV replicon cells was added with a Biotek μFlow workstation. For compound transfer into cell culture plates, 0.4 μL of compound solution from the compound serial dilution plate was transferred to the cell culture plate on a Biomek FX workstation. The DMSO concentration in the final assay wells was 0.44%. The plates were incubated for 3 days at 37° C. with 5% CO2 and 85% humidity. The HCV replicon assay was a multiplex assay, able to assess both cytotoxicity and antireplicon activity from the same well. The CC50 assay was performed first. The media in the 384-well cell culture plate was aspirated, and the wells were washed four times with 100 μL of PBS each, using a Biotek ELX405 plate washer. A volume of 50 μL of a solution containing 400 nM calcein AM (Anaspec, Fremont, CA) in 1×PBS was added to each well of the plate with a Biotek μFlow workstation. The plate was incubated for 30 min at room temperature before the fluorescence signal (excitation 490 nm, emission 520 nm) was measured with a Perkin-Elmer Envision plate reader. The EC50 assay was performed in the same wells as the CC50 assay. The calcein-PBS solution in the 384-well cell culture plate was aspirated with a Biotek ELX405 plate washer. A volume of 20 μL of Dual-Glo luciferase buffer (Promega, Madison, WI) was added to each well of the plate with a Biotek μFlow Workstation. The plate was incubated for 10 min at room temperature. A volume of 20 μL of a solution containing a 1:100 mixture of Dual-Glo Stop & Glo substrate (Promega, Madison, WI) and Dual-Glo Stop & Glo buffer (Promega, Madison, WI) was added to each well of the plate with a Biotek μFlow Workstation. The plate was then incubated at room temperature for 10 min before the luminescence signal was measured with a Perkin-Elmer Envision Plate Reader.
A general note: In antiviral work, replicon cells carry a viral genome segment that copies itself.

In the next test the test system is HCV Rep 2A. Briefly: HCV Rep 2A EC50 (replicon luciferase). The conditions noted are these: Table 4, replicon cells, 3 days, read-out: HCV Rep 2A EC50. As for the experimental part:
as §1

Setting [2] is: Dengue virus, DENV2, Huh-7, Table 3, Huh7 cells, 48 hours, read-out: DENV-2 Huh7 EC50.
[3] abbreviates: 96 h, Table 3, H1-HeLa cells, 96 h, read-out: HRV16 HeLa EC50.
Setting [4] is: Table 3, Huh7 cells, 48 hours, read-out: DENV-2 Huh7 EC50.
The mark [5] stands for this setting: Table 3, H1-HeLa cells, 96 h, read-out: HRV16 HeLa EC50.

The term EC50 denotes the concentration at which the effect is half-maximal. For the molecule `CCC(=O)O[C@H]1[C@H](c2ccc3c(N)ncnn23)O[C@](C#N)(CO[P@@](=O)(N[C@@H](C)C(=O)OC)Oc2ccccc2)[C@H]1OC(=O)CC` (single isomer, unassigned) [Example 143], the values for the concentration giving a half-maximal response (EC50) (in test [1] (setting [2]); in the test on HRV16 (setting [3])) were 3130 nM and 221 nM, respectively.
For the molecule `CCOC(=O)[C@H](C)N[P@](=O)(OC[C@@]1(C#N)O[C@@H](c2ccc3c(N)ncnn23)[C@H](OC(=O)C(C)C)[C@@H]1OC(=O)C(C)C)Oc1ccccc1` (single isomer, unassigned) [Example 144], the EC50 came to 442 nM with HCV Rep 1B (Hepatitis C virus, 72 h); 1180 nM in test [1] (setting [2]); 1280 nM in test [1] (Dengue virus, Huh-7, read-out: DENV Huh7 EC50); 1270 nM in the test with HCV Rep 2A (Hepatitis C virus, 72 h); 93 nM in the test with HRV16 (setting [3]); 92 nM in the test with HRV16 (HeLa, read-out: HRV16 HeLa EC50, Table 5 comparative activity, 2',3'-OH vs -OC(O)iPr).
With `CC(C)C(=O)O[C@H]1[C@H](c2ccc3c(N)ncnn23)O[C@](C#N)(COP(=O)(N[C@@H](C)C(=O)OCC2CCOCC2)Oc2ccccc2)[C@H]1OC(=O)C(C)C` (single isomer, unassigned) [Example 183], the results for the EC50 (in test [1] (setting [4]); with HRV16 (setting [5])) were 1110 nM and 88 nM, respectively.
With `CC(C)C(=O)O[C@H]1[C@H](c2ccc3c(N)ncnn23)O[C@](C#N)(COP(=O)(N[C@@H](C)C(=O)OC2COC2)Oc2ccccc2)[C@H]1OC(=O)C(C)C` (single isomer, unassigned) [Example 186], the EC50 worked out at 306 nM at HCV Rep 1B, 1730 nM in test [1] (setting [4]), 836 nM on HCV Rep 2A and 44 nM in the test with HRV16 (setting [5]).
With `CC(C)C(=O)O[C@H]1[C@H](c2ccc3c(N)ncnn23)O[C@](C#N)(COP(=O)(N[C@@H](C)C(=O)OCC2COC2)Oc2ccccc2)[C@H]1OC(=O)C(C)C` (single isomer, unassigned) [Example 201], the EC50 in test [1] (setting [4]) came to 317 nM; in the test with HRV16 (setting [5]), 177 nM.
Regarding `CCC(CC)COC(=O)[C@H](C)N[P@](=O)(OC[C@@]1(C#N)O[C@@H](c2ccc3c(N)ncnn23)C(OC(=O)C(C)C)[C@@H]1OC(=O)C(C)C)Oc1ccccc1` (stereo in doubt) [Example 86, (2R,3S,4R,5S)-5-(4-aminopyrrolo[2,1-f][1,2,4]triazin-7-yl)-2-cyano-2-((((S)-(((S)-1-(2-ethylbutoxy)-1-oxopropan-2-yl)amino)(phenoxy)phosphoryl)oxy)methyl) tetrahydrofuran-3,4-diyl bis(2-methylpropanoate)], the concentration for a half-maximal effect (EC50) in the test on HCV Rep 1B (Hepatitis C virus, 72 h) was determined as 929 nM; in test [1] (setting [2]) it was 1410 nM; in the test on HCV Rep 2A (Hepatitis C virus, 72 h), 1480 nM; with HRV16 (setting [3]), 192 nM.
The corresponding values for `CC(C)C(=O)O[C@H]1[C@H](c2ccc3c(N)ncnn23)O[C@](C#N)(CO[P@@](=O)(N[C@@H](C)C(=O)OC2CCCCC2)Oc2ccccc2)[C@H]1OC(=O)C(C)C` [Example 77, (2R,3S,4S,5S)-5-(4-aminopyrrolo[2,1-f][1,2,4]triazin-7-yl)-2-cyano-2-((((S)-(((S)-1-(cyclohexyloxy)-1-oxopropan-2-yl)amino)(phenoxy)phosphoryl)oxy)methyl) tetrahydrofuran-3,4-diyl bis(2-methylpropanoate)] are 608 nM, 1490 nM, 936 nM and 152 nM.
Consider `CCC(=O)O[C@H]1[C@H](c2ccc3c(N)ncnn23)O[C@](C#N)(CO[P@@](=O)(N[C@@H](C)C(=O)OCC2CC2)Oc2ccccc2)[C@H]1OC(=O)CC` [Example 99], for which the EC50 on HCV Rep 1B is 313 nM; at HCV Rep 2A, 599 nM; in the test on HRV16 (setting [5]), 116 nM.
In the case of `COC(=O)[C@H](C)N[P@](=O)(OC[C@@]1(C#N)O[C@@H](c2ccc3c(=N)n(COP(=O)(O)O)cnn23)[C@H](OC(=O)C(C)C)[C@@H]1OC(=O)C(C)C)Oc1ccccc1` [Example 259, (2R,3S,4S,5S)-2-cyano-5-(4-imino-3-((phosphonooxy)methyl)-3,4-dihydropyrrolo[2,1-f][1,2,4]triazin-7-yl)-2-((((S)-(((S)-1-methoxy-1-oxopropan-2-yl)amino)(phenoxy)phosphoryl)oxy)methyl)tetrahydrofuran-3,4-diyl bis(2-methylpropanoate)], the EC50 amounted to 1120 nM with HCV Rep 1B (Hepatitis C virus, 72 h); 1860 nM in test [1] (setting [2]); 2080 nM in the test with HCV Rep 2A (Hepatitis C virus, 72 h).

Source of the values: patent publication US12264173B2 (GILEAD SCIENCES, INC., priority 2020, dated 2025).
